In patent publication US9908868B2, “Isoindolinone compounds as GPR119 modulators for the treatment of diabetes, obesity, dyslipidemia and related disorders” (SANOFI, priority 2014, dated 2018):

Each molecule was assayed against T1, human GPR119 (Homo sapiens, UniProt Q8TDV5) (assay: Functional cellular assay measuring GPR119-mediated cAMP release (HTRF) in HEK-293 cells stably expressing recombinant human GPR119). Details: cAMP response, cell line expressing human GPR119, 30 minutes at room temperature.
T1 construct: expressed in transfected cells
T1 sequence (Q8TDV5 1-335): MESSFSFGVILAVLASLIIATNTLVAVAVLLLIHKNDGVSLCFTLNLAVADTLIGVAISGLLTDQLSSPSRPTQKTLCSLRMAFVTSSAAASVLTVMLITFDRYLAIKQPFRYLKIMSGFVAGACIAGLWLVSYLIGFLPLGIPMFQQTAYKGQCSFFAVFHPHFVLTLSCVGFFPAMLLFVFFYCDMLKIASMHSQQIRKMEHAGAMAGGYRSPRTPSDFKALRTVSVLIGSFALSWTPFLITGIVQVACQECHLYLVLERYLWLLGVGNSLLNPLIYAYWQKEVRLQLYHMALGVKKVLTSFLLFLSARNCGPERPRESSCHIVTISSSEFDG
Format: cell-based
How it was run: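 HEK-293 cells stably expressing recombinant human GPR119, suspended at 400000 cells/mL in HBSS/20 mM HEPES/0.1% BSA/2 mM IBMX, exposed to compound for 30 minutes at room temperature. cAMP detected by HTRF (665/620 nm ratio) after 1 h with reagents in lysis buffer. EC50 taken as concentration giving 50% of maximal activation.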
An EC50 of 5040 nM was found for `CC(C)N1Cc2c(F)cc(N3CC[C@@H](Oc4ccc(OCCC5CC5)nc4)C3=O)cc2C1=O` [Example 5-05, 6-[(3R)-3-[[6-(2-cyclopropylethoxy)-3-pyridyl]oxy]-2-oxo-pyrrolidin-1-yl]-4-fluoro-2-isopropyl-isoindolin-1-one] in this work. An EC50 of 126 nM was found for `CN(C)C(=O)CN1Cc2c(F)cc(N3CC[C@@H](Oc4ccc(OCC(C)(C)C)nc4)C3=O)cc2C1=O` [Example 6-02, 2-[6-[(3R)-3-[[6-(2,2-dimethylpropoxy)-3-pyridyl]oxy]-2-oxo-pyrrolidin-1-yl]-4-fluoro-1-oxo-isoindolin-2-yl]-N,N-dimethyl-acetamide] in this work. An EC50 of 144 nM was found for `COCCNC(=O)CN1Cc2ccc(N3CC[C@@H](Oc4ccc(OCC5CC5)nc4)C3=O)cc2C1=O` [Example 4-02, 2-[6-[(3R)-3-[[6-(cyclopropylmethoxy)-3-pyridyl]oxy]-2-oxo-pyrrolidin-1-yl]-1-oxo-isoindolin-2-yl]-N-(2-methoxyethyl)acetamide] in this work. An EC50 of 14700 nM was found for `CN(C)C(=O)CN1Cc2ccc(N3CC[C@@H](Oc4ccc(-n5cnnn5)cc4)C3=O)cc2C1=O` [Example 2-44, N,N-dimethyl-2-[1-oxo-6-[(3R)-2-oxo-3-[4-(tetrazol-1-yl)phenoxy]pyrrolidin-1-yl]isoindolin-2-yl]acetamide] in this work. An EC50 of 124 nM was found for `C[S+]([O-])CN1Cc2ccc(N3CC[C@@H](Oc4ccc(OCC5CC5)nc4)C3=O)cc2C1=O` (stereo partly drawn) [Example 1-52, 6-[(3R)-3-[[6-(cyclopropylmethoxy)-3-pyridyl]oxy]-2-oxo-pyrrolidin-1-yl]-2-(methylsulfinylmethyl)isoindolin-1-one] in this work. An EC50 of 443 nM was found for `O=C(O)CN1Cc2ccc(N3CC[C@@H](Oc4ccc(OCC5CC5)nc4)C3=O)cc2C1=O` [Example 3-02, 2-[6-[(3R)-3-[[6-(cyclopropylmethoxy)-3-pyridyl]oxy]-2-oxo-pyrrolidin-1-yl]-1-oxo-isoindolin-2-yl]acetic acid] in this work. An EC50 of 233 nM was found for `CN(C)C(=O)CN1Cc2ccc(N3CC[C@@H](Oc4ccc(SC5CC5)nc4)C3=O)cc2C1=O` [Example 2-20, 2-[6-[(3R)-3-[(6-cyclopropylsulfanyl-3-pyridyl)oxy]-2-oxo-pyrrolidin-1-yl]-1-oxo-isoindolin-2-yl]-N,N-dimethyl-acetamide] in this work. An EC50 of 6080 nM was found for `CCOc1ccc(O[C@@H]2CCN(c3cc(F)c4c(c3)C(=O)N(CC(=O)O)C4)C2=O)cn1` [Example 5-02, 2-[6-[(3R)-3-[(6-ethoxy-3-pyridyl)oxy]-2-oxo-pyrrolidin-1-yl]-4-fluoro-1-oxo-isoindolin-2-yl]acetic acid] in this work. An EC50 of 35 nM was found for `CN(C)C(=O)CN1Cc2c(F)cc(N3CC[C@@H](Oc4ccc(OCC5CCC5)nc4)C3=O)cc2C1=O` [Example 6-04, 2-[6-[(3R)-3-[[6-(cyclobutylmethoxy)-3-pyridyl]oxy]-2-oxo-pyrrolidin-1-yl]-4-fluoro-1-oxo-isoindolin-2-yl]-N,N-dimethyl-acetamide] in this work. An EC50 of 156 nM was found for `CN(C)C(=O)CN1Cc2ccc(N3CC[C@@H](Oc4ccc(CCC5CC5)nc4)C3=O)cc2C1=O` [Example 2-04, 2-[6-[(3R)-3-[[6-(2-cyclopropylethyl)-3-pyridyl]oxy]-2-oxo-pyrrolidin-1-yl]-1-oxo-isoindolin-2-yl]-N,N-dimethyl-acetamide] in this work. An EC50 of 1240 nM was found for `CN1Cc2c(F)cc(N3CC[C@@H](Oc4ccc(OCCC5CC5)nc4)C3=O)cc2C1=O` [Example 5-04, 6-[(3R)-3-[[6-(2-cyclopropylethoxy)-3-pyridyl]oxy]-2-oxo-pyrrolidin-1-yl]-4-fluoro-2-methyl-isoindolin-1-one] in this work. An EC50 of 84 nM was found for `CC(C)c1noc(-c2ccc(O[C@@H]3CCN(c4ccc5c(c4)C(=O)N(CC(=O)N(C)C)C5)C3=O)cc2)n1` [Example 2-34, 2-[6-[(3R)-3-[4-(3-isopropyl-1,2,4-oxadiazol-5-yl)phenoxy]-2-oxo-pyrrolidin-1-yl]-1-oxo-isoindolin-2-yl]-N,N-dimethyl-acetamide] in this work. An EC50 of 46 nM was found for `CSCN1Cc2c(F)cc(N3CC[C@@H](Oc4ccc(OCC5CC5)nc4)C3=O)cc2C1=O` [Example 1-20, 6-[(3R)-3-[[6-(cyclopropylmethoxy)-3-pyridyl]oxy]-2-oxo-pyrrolidin-1-yl]-4-fluoro-2-(methylsulfanylmethyl)isoindolin-1-one] in this work. An EC50 of 330 nM was found for `CN(C)C(=O)CN1Cc2ccc(N3CC[C@@H](Oc4ccc(C(=O)C5(C)CC5)nc4)C3=O)cc2C1=O` [Example 2-59, N,N-dimethyl-2-[6-[(3R)-3-[[6-(1-methylcyclopropanecarbonyl)-3-pyridyl]oxy]-2-oxo-pyrrolidin-1-yl]-1-oxo-isoindolin-2-yl]acetamide] in this work. An EC50 of 104 nM was found for `C[S+]([O-])CN1Cc2ncc(N3CC[C@@H](Oc4ccc(OCC(F)(F)F)nc4)C3=O)cc2C1=O` (stereo partly drawn) [Example 1-63, 6-(methylsulfinylmethyl)-3-[(3R)-2-oxo-3-[[6-(2,2,2-trifluoroethoxy)-3-pyridyl]oxy]pyrrolidin-1-yl]-7H-pyrrolo[3,4-b]pyridin-5-one] in this work. An EC50 of 49 nM was found for `CNC(=O)CN1Cc2c(F)cc(N3CC[C@@H](Oc4ccc(OCCC5CC5)nc4)C3=O)cc2C1=O` [Example 4-28, 2-[6-[(3R)-3-[[6-(2-cyclopropylethoxy)-3-pyridyl]oxy]-2-oxo-pyrrolidin-1-yl]-4-fluoro-1-oxo-isoindolin-2-yl]-N-methyl-acetamide] in this work. An EC50 of 80 nM was found for `CN(C)C(=O)CN1Cc2c(F)cc(N3CC[C@@H](Oc4ccc(OCC5CC5)nc4)C3=O)cc2C1=O` [Example 4-25, 2-[6-[(3R)-3-[[6-(cyclopropylmethoxy)-3-pyridyl]oxy]-2-oxo-pyrrolidin-1-yl]-4-fluoro-1-oxo-isoindolin-2-yl]-N,N-dimethyl-acetamide] in this work. An EC50 of 27 nM was found for `CCOC(=O)CN1Cc2ccc(N3CC[C@@H](Oc4ccc(OCC(F)(F)F)nc4)C3=O)cc2C1=O` [Example 1-64, ethyl 2-[1-oxo-6-[(3R)-2-oxo-3-[[6-(2,2,2-trifluoroethoxy)-3-pyridyl]oxy]pyrrolidin-1-yl]isoindolin-2-yl]acetate] in this work. An EC50 of 346 nM was found for `CN(C)C(=O)CN1Cc2c(F)cc(N3CC[C@@H](Oc4ccc(OC5CC5)nc4)C3=O)cc2C1=O` [Example 1-21, 2-[6-[(3R)-3-[[6-(cyclopropoxy)-3-pyridyl]oxy]-2-oxo-pyrrolidin-1-yl]-4-fluoro-1-oxo-isoindolin-2-yl]-N,N-dimethyl-acetamide] in this work. An EC50 of 232 nM was found for `CC(C)NC(=O)CN1Cc2ccc(N3CC[C@@H](Oc4ccc(OCC(F)(F)F)nc4)C3=O)cc2C1=O` [Example 4-37, N-isopropyl-2-[1-oxo-6-[(3R)-2-oxo-3-[[6-(2,2,2-trifluoroethoxy)-3-pyridyl]oxy]pyrrolidin-1-yl]isoindolin-2-yl]acetamide] in this work. An EC50 of 74 nM was found for `CN(C)C(=O)CN1Cc2ccc(N3CC[C@@H](Oc4ccc(O[C@@H]5C[C@@H]6C[C@@H]6C5)nc4)C3=O)cc2C1=O` [Example 2-18, 2-[6-[(3R)-3-[[6-[[(1S,5R)-3-bicyclo[3.1.0]hexanyl]oxy]-3-pyridyl]oxy]-2-oxo-pyrrolidin-1-yl]-1-oxo-isoindolin-2-yl]-N,N-dimethyl-acetamide] in this work. An EC50 of 21000 nM was found for `CN(C)C(=O)CN1Cc2ccc(N3CC[C@@H](Oc4ccc(N5CCOCC5)cc4)C3=O)cc2C1=O` [Example 2-24, N,N-dimethyl-2-[6-[(3R)-3-(4-morpholinophenoxy)-2-oxo-pyrrolidin-1-yl]-1-oxo-isoindolin-2-yl]acetamide] in this work. An EC50 of 488 nM was found for `CN(C)C(=O)Cn1c(=O)c2cc(N3CC[C@@H](Oc4ccc(OCC5CC5)nc4)C3=O)ccc2n1C` [Example 1-27, 2-[5-[(3R)-3-[[6-(cyclopropylmethoxy)-3-pyridyl]oxy]-2-oxo-pyrrolidin-1-yl]-1-methyl-3-oxo-indazol-2-yl]-N,N-dimethyl-acetamide] in this work. An EC50 of 337 nM was found for `CN(C)C(=O)CN1Cc2ccc(N3CC[C@@H](Oc4ccc(-c5csnn5)cc4)C3=O)cc2C1=O` [Example 2-40, N,N-dimethyl-2-[1-oxo-6-[(3R)-2-oxo-3-[4-(thiadiazol-4-yl)phenoxy]pyrrolidin-1-yl]isoindolin-2-yl]acetamide] in this work. An EC50 of 64 nM was found for `C=CCOc1ccc(O[C@@H]2CCN(c3cc(F)c4c(c3)C(=O)N(CC(=O)N(C)C)C4)C2=O)cn1` [Example 6-03, 2-[6-[(3R)-3-[(6-allyloxy-3-pyridyl)oxy]-2-oxo-pyrrolidin-1-yl]-4-fluoro-1-oxo-isoindolin-2-yl]-N,N-dimethyl-acetamide] in this work. An EC50 of 14200 nM was found for `CN(C)C(=O)Cn1c(=O)c2cc(N3CC[C@H](Oc4ccc(OCC5CC5)nc4)C3=O)ccc2n1C` [Example 1-26, 2-[5-[(3S)-3-[[6-(cyclopropylmethoxy)-3-pyridyl]oxy]-2-oxo-pyrrolidin-1-yl]-1-methyl-3-oxo-indazol-2-yl]-N,N-dimethyl-acetamide] in this work. An EC50 of 82 nM was found for `CN(C)C(=O)CN1Cc2ccc(N3CC[C@@H](Oc4ccc(OCC(F)(F)F)cc4)C3=O)cc2C1=O` [Example 2-30, N,N-dimethyl-2-[1-oxo-6-[(3R)-2-oxo-3-[4-(2,2,2-trifluoroethoxy)phenoxy]pyrrolidin-1-yl]isoindolin-2-yl]acetamide] in this work. An EC50 of 2210 nM was found for `CN(C)C(=O)CN1Cc2ccc(N3CC[C@@H](Oc4ccc(NC5=NC(=O)CS5)cc4)C3=O)cc2C1=O` [Example 2-33, N,N-dimethyl-2-[1-oxo-6-[(3R)-2-oxo-3-[4-[(4-oxothiazol-2-yl)amino]phenoxy]pyrrolidin-1-yl]isoindolin-2-yl]acetamide] in this work.
